Reference: ChEMBL document CHEMBL1135924, “Structure-based design and synthesis of 2-benzylidene-benzofuran-3-ones as flavopiridol mimics” (J Med Chem, 2002)

Assays:
[1] = biological target: Epidermal growth factor receptor (Homo sapiens) (UniProt P00533); assay: Inhibition of Epidermal growth factor receptor at 10 uM
[2] = system: HCT-116; assay: Inhibition of HCT116 (transformed colon) cell proliferation; assay type: functional, cell-based; conditions: Homo sapiens
[3] = biological target: Cyclin-dependent kinase 1 (Homo sapiens, UniProt P06493); assay: Inhibition of cyclin B activated Cyclin-dependent kinase 1 (CDK1)
[4] = biological target: T1, Protein kinase C alpha type (Homo sapiens, UniProt P17252); assay: Inhibition of Protein kinase C alpha at 10 uM
[5] = biological target: Cyclin-dependent kinase 2 (Homo sapiens, UniProt P24941); assay: Inhibition of cyclin A activated Cyclin-dependent kinase 2 (CDK2)
[6] = biological target: Cyclin-dependent kinase 4 (Homo sapiens, UniProt P11802); assay: Inhibition of cyclin D1 activated Cyclin-dependent kinase 4 (CDK4)
[7] = biological target: Vascular endothelial growth factor receptor 2 (Homo sapiens) (UniProt P35968); assay: Inhibition of Vascular endothelial growth factor receptor 2 (VEGF-KDR) at 10 uM
[8] = biological target: Glycogen synthase kinase-3 (Homo sapiens, UniProt P49840+P49841); assay: inhibition of Glycogen synthase kinase-3; assay type: protein assay
[9] = biological target: T1, Protein kinase C alpha type; assay: Inhibition of Protein kinase C alpha

Vascular endothelial growth factor receptor 2 (Homo sapiens), sequence (P35968 whole entry): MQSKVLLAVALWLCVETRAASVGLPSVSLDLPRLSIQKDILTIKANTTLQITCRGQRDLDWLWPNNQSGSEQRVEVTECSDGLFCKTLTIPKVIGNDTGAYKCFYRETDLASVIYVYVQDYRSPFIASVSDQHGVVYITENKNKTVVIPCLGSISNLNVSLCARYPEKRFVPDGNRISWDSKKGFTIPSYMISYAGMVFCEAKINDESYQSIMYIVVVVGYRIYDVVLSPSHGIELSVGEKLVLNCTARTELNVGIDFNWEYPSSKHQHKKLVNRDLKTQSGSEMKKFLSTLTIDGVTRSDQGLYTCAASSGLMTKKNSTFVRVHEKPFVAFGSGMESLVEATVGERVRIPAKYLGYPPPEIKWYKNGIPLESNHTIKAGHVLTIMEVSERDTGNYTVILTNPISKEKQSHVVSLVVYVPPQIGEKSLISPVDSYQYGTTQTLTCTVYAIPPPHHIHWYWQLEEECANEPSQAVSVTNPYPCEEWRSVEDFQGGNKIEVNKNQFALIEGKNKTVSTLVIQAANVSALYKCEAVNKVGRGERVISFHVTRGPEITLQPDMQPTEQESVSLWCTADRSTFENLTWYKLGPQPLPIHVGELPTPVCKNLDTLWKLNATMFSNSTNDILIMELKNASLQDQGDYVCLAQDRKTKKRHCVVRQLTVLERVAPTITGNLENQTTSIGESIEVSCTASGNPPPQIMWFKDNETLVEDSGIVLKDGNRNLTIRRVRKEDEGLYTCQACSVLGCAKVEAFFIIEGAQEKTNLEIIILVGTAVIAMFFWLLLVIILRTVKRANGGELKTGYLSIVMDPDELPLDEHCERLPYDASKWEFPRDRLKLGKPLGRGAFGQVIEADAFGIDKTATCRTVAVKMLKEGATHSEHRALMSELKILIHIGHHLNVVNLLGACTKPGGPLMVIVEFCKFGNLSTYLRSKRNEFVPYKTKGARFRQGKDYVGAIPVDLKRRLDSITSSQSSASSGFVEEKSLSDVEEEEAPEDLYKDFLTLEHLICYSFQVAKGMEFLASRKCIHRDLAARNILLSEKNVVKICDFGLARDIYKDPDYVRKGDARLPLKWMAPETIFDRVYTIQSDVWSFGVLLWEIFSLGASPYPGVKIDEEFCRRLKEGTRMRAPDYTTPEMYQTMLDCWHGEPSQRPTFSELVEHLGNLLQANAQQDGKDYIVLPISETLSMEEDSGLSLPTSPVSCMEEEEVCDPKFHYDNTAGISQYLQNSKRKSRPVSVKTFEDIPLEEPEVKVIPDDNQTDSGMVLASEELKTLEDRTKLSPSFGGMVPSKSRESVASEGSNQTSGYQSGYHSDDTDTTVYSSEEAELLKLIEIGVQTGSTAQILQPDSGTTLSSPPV
Cyclin-dependent kinase 4, sequence (P11802 whole entry): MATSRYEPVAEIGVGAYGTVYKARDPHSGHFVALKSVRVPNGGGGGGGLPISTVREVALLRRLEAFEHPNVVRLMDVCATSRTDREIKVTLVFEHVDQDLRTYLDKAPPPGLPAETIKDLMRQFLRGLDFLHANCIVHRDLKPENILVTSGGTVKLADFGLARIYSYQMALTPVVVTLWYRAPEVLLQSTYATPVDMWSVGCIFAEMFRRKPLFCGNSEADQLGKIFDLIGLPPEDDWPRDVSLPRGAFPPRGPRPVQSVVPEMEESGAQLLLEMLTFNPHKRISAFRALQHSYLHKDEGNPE
Epidermal growth factor receptor (Homo sapiens), sequence (P00533 whole entry): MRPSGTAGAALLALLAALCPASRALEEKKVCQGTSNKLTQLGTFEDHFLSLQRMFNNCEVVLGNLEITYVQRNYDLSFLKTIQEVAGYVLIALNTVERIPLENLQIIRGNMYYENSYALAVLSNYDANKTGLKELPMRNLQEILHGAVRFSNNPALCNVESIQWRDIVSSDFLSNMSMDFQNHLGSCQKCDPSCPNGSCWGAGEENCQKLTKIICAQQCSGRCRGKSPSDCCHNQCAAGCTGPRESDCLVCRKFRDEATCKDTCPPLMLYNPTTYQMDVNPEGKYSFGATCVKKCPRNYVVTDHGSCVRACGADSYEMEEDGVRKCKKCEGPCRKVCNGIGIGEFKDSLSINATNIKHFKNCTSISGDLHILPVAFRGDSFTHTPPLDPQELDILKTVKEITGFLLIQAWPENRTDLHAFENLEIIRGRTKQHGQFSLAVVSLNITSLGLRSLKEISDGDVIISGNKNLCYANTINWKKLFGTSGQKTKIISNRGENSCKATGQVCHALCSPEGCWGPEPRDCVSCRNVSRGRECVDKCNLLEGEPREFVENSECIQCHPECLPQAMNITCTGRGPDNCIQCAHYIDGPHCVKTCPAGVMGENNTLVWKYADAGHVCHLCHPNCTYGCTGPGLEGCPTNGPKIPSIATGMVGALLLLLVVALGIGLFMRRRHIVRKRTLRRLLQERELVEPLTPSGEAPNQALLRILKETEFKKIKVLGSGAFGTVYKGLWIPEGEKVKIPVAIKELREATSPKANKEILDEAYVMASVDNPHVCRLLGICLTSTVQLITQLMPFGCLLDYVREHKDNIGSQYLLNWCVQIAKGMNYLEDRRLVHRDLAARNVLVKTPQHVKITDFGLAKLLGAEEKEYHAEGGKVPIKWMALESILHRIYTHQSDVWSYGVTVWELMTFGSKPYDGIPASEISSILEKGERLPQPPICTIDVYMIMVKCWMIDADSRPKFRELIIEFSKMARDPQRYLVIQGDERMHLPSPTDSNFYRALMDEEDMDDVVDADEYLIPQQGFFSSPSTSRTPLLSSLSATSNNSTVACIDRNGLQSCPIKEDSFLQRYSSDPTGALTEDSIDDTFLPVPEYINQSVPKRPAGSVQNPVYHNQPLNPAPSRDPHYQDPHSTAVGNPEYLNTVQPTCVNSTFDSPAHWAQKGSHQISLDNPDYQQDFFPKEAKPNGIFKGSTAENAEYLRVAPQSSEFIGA
Cyclin-dependent kinase 1, sequence (P06493 whole entry): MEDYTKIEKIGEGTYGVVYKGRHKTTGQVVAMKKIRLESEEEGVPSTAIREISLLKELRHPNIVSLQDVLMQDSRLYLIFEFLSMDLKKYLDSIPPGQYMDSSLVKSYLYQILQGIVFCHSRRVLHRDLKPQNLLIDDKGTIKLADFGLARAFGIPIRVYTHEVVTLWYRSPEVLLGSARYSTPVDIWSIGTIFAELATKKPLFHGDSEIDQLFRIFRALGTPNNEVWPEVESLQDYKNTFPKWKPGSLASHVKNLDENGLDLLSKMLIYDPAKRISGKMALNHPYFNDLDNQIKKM

Row | IC50 [9] | Structure (SMILES) | inhibition [1] | IC50 [2] | IC50 [3] | inhibition [4] | IC50 [5] | IC50 [6] | inhibition [7] | IC50 [8]
1 | – | CN1CCC(c2c(O)cc(O)c3c2O/C(=C\c2ccc(N4CCN(C)CC4)cc2)C3=O)CC1 | 29% | 24.8 µM | 0.8 µM | 21% | 2.98 µM | 1.92 µM | 25% | 1.75 µM
2 | – | CN1CCC(c2c(O)cc(O)c3c2O/C(=C\c2ccc(S(N)(=O)=O)cc2)C3=O)CC1 | 36% | > 50 µM | 0.009 µM | 42% | 0.03 µM | 1.87 µM | 25% | 3.7 µM
3 | – | CN1CCC(c2c(O)cc(O)c3c2O/C(=C\c2ccccc2)C3=O)CC1 | 38% | > 50 µM | 0.11 µM | 19% | 1.28 µM | 4.41 µM | 2% | 4.2 µM
4 | 22 µM | CN1CCC(c2c(O)cc(O)c3c2O/C(=C\c2ccc([N+](=O)[O-])cc2)C3=O)CC1 | 43% | 35.6 µM | – | – | 0.31 µM | 2.21 µM | 37% | 4.8 µM
5 | – | CN1CCC(c2c(O)cc(O)c3c2O/C(=C\c2ccccc2Cl)C3=O)CC1 | – | 20.1 µM | 0.6 µM | 22% | 3.97 µM | 25.3 µM | 17% | 10 µM
